Source: ChEMBL document CHEMBL1133162, “Tyrosine kinase inhibitors. 17. Irreversible inhibitors of the epidermal growth factor receptor: 4-(phenylamino)quinazoline- and 4-(phenylamino)pyrido[3,2-d]pyrimidine-6-acrylamides bearing additional solubilizing functions” (J Med Chem, 2000)
Activity calls are given as the source filed them. The rule behind the calls is not given here.

Key:
[1] = biological target: Receptor tyrosine-protein kinase erbB-2 (Homo sapiens, UniProt P04626)
Description: Inhibition of autophosphorylation of ERBB2 receptor kinase in MDA-MB 453 cells

[2] = biological target: T1, Epidermal growth factor receptor (Homo sapiens, UniProt P00533)
Description: Inhibition of phosphorylation of a polyglutamic acid/tyrosine random copolymer by EGFR enzyme prepared from human A431 carcinoma cell vesicles by immunoaffinity chromatography

[3] = biological target: T1, Epidermal growth factor receptor; remark: listed apart in the source
Description: Inhibition of EGF-stimulated autophosphorylation of EGFR enzyme in A431 cells detected by immunoblotting

[4] = system: Caco-2; experiment: Efflux in Caco-2 cells; yes; assay type: functional, cell-based; details: Homo sapiens
[5] = system: Caco-2; experiment: Absorptive transport in Caco-2 cells in comparison to metoprolol; assay type: functional, cell-based; details: Homo sapiens
[6] = system: Caco-2; experiment: permeability in Caco-2 cells; yes; assay type: functional, cell-based; details: Homo sapiens
[7] = system: A-431; experiment: In vivo activity against A431 xenografts in mice, difference in days for treated(T) and control(C) tumors to reach 750 mg at 60 mg/kg peroral dose for 10-24 days; assay type: functional; details: route oral
[8] = system: Mus musculus; experiment: In vivo activity against xenografts in mice, ratio of treated/control tumor mass at 10 mg/kg peroral dose for 10-24 days; assay type: functional; details: route oral
[9] = system: A-431; experiment: In vivo activity against A431 xenografts in mice, difference in days for treated(T) and control(C) tumors to reach 750 mg at 10 mg/kg intraperitoneal dose for 13-26 days
[10] = system: A-431; experiment: In vivo activity against A431 xenografts in mice after 60 mg/kg peroral dose; assay type: functional; details: route oral
[11] = system: Mus musculus; experiment: In vivo activity against xenografts in mice, ratio of treated/control tumor mass at 10 mg/kg intraperitoneal dose
[12] = system: A-431; experiment: In vivo activity against A431 xenografts in mice, ratio of treated/control tumor mass at 20 mg/kg peroral dose for 15-19 days; details: route oral
[13] = system: A-431; experiment: In vivo activity against A431 xenografts in mice, difference in days for treated(T) and control(C) tumors to reach 750 mg at 20 mg/kg peroral dose for 10-24 days; assay type: functional; details: route oral
[14] = system: Caco-2; experiment: Efflux in Caco-2 cells; no; assay type: functional, cell-based; details: Homo sapiens
[15] = system: A-431; experiment: In vivo activity against A431 xenografts in mice, ratio of treated/control A431 cell tumor mass at 20 mg/kg peroral dose for 10-24 days; assay type: functional; details: route oral
[16] = system: Caco-2; experiment: permeability in Caco-2 cells; no; assay type: functional, cell-based; details: Homo sapiens
[17] = system: Caco-2; experiment: Secretory Transport in Caco-2 cells in comparison to metoprolol; assay type: functional, cell-based; parameters: unit not given here; details: Homo sapiens
[18] = system: A-431; experiment: In vivo activity against A431 xenografts in mice, ratio of treated/control tumor mass at 5 mg/kg peroral dose for 10-24 days; assay type: functional; details: route oral
[19] = system: A-431; experiment: In vivo activity against A431 xenografts in mice, ratio of treated/control tumor mass at 18 mg/kg peroral dose for 10-24 days; details: route oral
[20] = system: Caco-2; experiment: Absorptive transport in Caco-2 cells in comparison to metoprolol.; assay type: functional, cell-based; details: Homo sapiens

Sequence of Receptor tyrosine-protein kinase erbB-2 (P04626 whole entry): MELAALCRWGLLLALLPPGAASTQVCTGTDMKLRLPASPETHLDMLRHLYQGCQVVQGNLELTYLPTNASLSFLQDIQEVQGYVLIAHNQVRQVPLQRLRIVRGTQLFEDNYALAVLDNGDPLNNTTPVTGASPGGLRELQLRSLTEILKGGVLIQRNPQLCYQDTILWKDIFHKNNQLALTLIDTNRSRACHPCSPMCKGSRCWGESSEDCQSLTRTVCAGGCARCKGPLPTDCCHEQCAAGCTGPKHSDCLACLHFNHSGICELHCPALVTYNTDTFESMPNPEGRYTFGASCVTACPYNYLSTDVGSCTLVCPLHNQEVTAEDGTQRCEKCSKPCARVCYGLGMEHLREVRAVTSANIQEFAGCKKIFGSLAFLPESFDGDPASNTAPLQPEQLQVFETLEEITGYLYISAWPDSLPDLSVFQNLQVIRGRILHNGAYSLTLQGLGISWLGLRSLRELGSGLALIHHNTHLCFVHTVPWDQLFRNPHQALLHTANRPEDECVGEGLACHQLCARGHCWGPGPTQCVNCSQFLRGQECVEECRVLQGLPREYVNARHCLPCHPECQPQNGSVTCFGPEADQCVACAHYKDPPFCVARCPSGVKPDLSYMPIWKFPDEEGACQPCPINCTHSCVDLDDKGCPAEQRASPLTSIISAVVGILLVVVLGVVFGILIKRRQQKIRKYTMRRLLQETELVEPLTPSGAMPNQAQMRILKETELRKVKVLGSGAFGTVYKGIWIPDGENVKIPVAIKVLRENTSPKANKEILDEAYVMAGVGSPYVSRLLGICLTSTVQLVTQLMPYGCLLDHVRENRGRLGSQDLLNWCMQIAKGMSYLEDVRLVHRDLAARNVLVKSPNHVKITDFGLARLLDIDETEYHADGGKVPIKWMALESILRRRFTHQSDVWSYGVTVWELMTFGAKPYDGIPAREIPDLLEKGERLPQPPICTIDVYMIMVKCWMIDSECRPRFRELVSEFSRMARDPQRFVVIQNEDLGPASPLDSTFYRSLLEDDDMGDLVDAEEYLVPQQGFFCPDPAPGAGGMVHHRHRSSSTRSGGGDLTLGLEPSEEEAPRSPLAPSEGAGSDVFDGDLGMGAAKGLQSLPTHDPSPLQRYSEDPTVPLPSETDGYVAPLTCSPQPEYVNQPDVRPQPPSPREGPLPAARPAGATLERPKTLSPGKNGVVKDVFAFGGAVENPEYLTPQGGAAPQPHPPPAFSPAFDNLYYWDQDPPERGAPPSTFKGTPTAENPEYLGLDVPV
T1 sequence (P00533 whole entry): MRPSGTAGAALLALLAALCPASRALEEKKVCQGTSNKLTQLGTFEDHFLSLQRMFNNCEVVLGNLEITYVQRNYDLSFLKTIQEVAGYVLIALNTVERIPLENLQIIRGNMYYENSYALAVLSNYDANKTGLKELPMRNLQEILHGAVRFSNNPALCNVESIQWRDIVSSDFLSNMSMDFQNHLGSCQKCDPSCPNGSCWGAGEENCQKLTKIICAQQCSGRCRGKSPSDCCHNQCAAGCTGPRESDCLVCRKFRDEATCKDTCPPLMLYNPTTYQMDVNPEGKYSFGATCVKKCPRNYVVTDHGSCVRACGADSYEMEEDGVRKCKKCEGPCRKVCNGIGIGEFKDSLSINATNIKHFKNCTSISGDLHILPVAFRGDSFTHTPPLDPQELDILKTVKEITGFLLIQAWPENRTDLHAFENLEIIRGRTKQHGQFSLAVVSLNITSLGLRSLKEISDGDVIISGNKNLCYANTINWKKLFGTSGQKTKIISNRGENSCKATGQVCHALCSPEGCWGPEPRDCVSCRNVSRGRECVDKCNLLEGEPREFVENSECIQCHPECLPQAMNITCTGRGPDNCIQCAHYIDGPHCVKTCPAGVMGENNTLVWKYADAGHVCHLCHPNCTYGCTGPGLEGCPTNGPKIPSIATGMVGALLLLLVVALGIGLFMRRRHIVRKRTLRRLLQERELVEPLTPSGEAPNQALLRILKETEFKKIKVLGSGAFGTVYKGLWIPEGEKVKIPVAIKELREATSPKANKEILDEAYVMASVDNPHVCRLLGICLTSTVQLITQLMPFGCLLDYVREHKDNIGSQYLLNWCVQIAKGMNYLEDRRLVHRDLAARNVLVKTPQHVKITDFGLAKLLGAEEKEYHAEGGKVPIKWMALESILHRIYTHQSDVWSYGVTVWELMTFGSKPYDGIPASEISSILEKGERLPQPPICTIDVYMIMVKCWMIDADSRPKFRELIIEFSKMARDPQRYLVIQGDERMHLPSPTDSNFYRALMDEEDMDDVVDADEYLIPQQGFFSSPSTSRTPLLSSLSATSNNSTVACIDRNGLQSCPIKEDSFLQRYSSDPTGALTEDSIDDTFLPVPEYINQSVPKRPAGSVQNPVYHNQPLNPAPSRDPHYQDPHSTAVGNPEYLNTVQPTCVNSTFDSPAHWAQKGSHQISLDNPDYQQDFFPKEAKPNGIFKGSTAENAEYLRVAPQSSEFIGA

IC50 [1] [nM] | IC50 [2] [nM] | IC50 [3] [nM] | SMILES | also measured
22 |  |  | C=CC(=O)Nc1ccc2ncnc(Nc3cccc(C)c3)c2c1 | 
 | 1.7 |  | C=CC(=O)Nc1cc2c(Nc3ccc(F)c(Cl)c3)ncnc2cc1OCCOCCCCO | 
12 | 0.16 | 119 | C=CC(=O)Nc1nc2c(Nc3ccc(F)c(Cl)c3)ncnc2cc1/C=C/CCN1CCOCC1 | 
182 | 6.6 | 264 | C=CC(=O)Nc1nc2c(Nc3ccc(F)c(Cl)c3)ncnc2cc1OCCCN1CCN(C)CC1 | 
> 200 | 20 | 88 | C=CC(=O)N(C)c1nc2c(Nc3ccc(F)c(Cl)c3)ncnc2cc1OCCCN1CCOCC1 | 
 | 27 | 7690 | C=CC(=O)Nc1ccc2ncnc(Nc3ccc(OCCN(C)C)c(Br)c3)c2c1 | 
 | 0.78 | 196 | C=CC(=O)Nc1cc2c(Nc3cccc(Br)c3)ncnc2cc1SCCCN(CC)CC | 
 | 45 | 416 | C=CC(=O)Nc1ccc2ncnc(Nc3ccc(CN(C)C)c(Br)c3)c2c1 | 

Second part, the compound before the results:

SMILES | IC50 [1] [nM] | IC50 [2] [nM] | IC50 [3] [nM] | also measured
C=CC(=O)Nc1cc2c(Nc3cccc(C)c3)ncnc2cc1OCCCN1CCN(C)CC1 |  | 2 | 18 | 
CC[C@]1(O)C[C@@H]2CN(CCc3c([nH]c4ccccc34)[C@@](C(=O)OC)(c3cc4c(cc3OC)N(C)[C@H]3[C@@](O)(C(=O)OC)[C@H](OC(C)=O)[C@]5(CC)C=CCN6CC[C@]43[C@@H]65)C2)C1 |  |  |  | Permeability [4]: Active; Permeability [5]: 1.54 ·10e6; Permeability [6]: Active
C=CC(=O)Nc1cc2c(Nc3cccc(Br)c3)ncnc2cc1OCCCN1CCOCC1 | 6.4 |  |  | T-C [7]: 29.8 days; T/C [8]: 0%; T-C [9]: 21.5 days; Weight change [10]: -1.6 g; T/C [11]: 18%
C=CC(=O)Nc1nc2c(Nc3ccc(F)c(Cl)c3)ncnc2cc1OCCOC |  | 0.97 | 377 | 
C=CC(=O)Nc1cc2c(Nc3cccc(Br)c3)ncnc2cc1OCCCN1CCN(C)CC1 |  | 1.7 | 3 | 
C=CC(=O)Nc1cc2c(Nc3ccc(F)c(Br)c3)ncnc2cc1OCCCN1CCOCC1 | 8.2 | 1.8 | 4.7 | 
C=CC(=O)Nc1nc2c(Nc3ccc(F)c(Cl)c3)ncnc2cc1CCCCN1CCOCC1 | > 5000 | 2.7 | 5100 | 
C=CC(=O)Nc1nc2c(Nc3ccc(F)c(Cl)c3)ncnc2cc1OCCCN1CCOCC1 | 189 | 1.5 | 434 | Weight change [12]: -0.5 g; T-C [13]: 9.3 days; Efflux [14]: Impermeable; Permeability [5]: 59.6 ·10e6; T/C [15]: 69%; Permeability limited [16]: Impermeable; Permeability [17]: 81.2
C=CC(=O)Nc1cc2c(Nc3cccc(Br)c3)ncnc2cc1OCCCCN(C)C |  | 3.9 | 7.9 | 
C=CC(=O)Nc1cc2c(Nc3ccc(F)c(Cl)c3)ncnc2cc1OCCCN1CCOCC1 [CANERTINIB] |  |  |  | Efflux [14]: Impermeable; Cell permeation [16]: Impermeable; Last therapy day [18]: 4%; Last therapy day [19]: 0%; Permeability [20]: 49.3 ·10e6
C=CC(=O)Nc1nc2c(Nc3ccc(F)c(Cl)c3)ncnc2cc1OC | 125 | 0.95 | 291 | 
COCCc1ccc(OCC(O)CNC(C)C)cc1 (stereo unspecified) |  |  |  | Permeability [14]: Impermeable; Permeability [5]: 21.4 ·10e6; Permeability [16]: Impermeable
